Ki data for 1 molecule are collected here from paper PMC4023971, “Targeting Prolyl Endopeptidase with Valproic Acid as a Potential Modulator of Neutrophilic Inflammation” (PLoS ONE, 2014).

The target in the experiment is T1, prolyl endopeptidase (PE, rhPE) (Homo sapiens, UniProt P48147).
T1 construct: gene PREP; recombinant human PE expressed in E. coli from plasmid pTrcHis PE
T1 sequence (P48147 1-710): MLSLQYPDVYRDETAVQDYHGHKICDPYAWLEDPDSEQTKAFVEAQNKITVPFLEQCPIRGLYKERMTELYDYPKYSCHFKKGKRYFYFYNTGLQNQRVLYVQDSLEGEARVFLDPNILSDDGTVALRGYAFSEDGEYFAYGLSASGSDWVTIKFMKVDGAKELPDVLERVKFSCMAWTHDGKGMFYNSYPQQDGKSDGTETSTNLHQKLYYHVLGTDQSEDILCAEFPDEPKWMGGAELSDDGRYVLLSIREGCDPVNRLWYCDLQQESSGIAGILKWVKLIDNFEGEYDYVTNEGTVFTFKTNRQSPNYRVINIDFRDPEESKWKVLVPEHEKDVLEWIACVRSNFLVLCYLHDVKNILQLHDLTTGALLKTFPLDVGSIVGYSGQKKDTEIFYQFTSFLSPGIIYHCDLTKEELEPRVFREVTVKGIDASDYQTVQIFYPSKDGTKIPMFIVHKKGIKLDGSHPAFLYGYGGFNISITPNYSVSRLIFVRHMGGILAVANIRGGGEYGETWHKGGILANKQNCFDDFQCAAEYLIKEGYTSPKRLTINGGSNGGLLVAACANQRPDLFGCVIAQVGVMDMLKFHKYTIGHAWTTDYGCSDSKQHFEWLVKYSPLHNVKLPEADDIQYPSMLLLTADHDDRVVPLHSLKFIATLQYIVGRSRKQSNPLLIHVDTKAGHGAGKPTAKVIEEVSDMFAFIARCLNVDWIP
In words: purified rhPE activity assay (Suc-Gly-Pro-AMC fluorescence / Suc-Gly-Pro-pNA UV-vis, Lineweaver-Burk); supported by CD and NMR competition with ZPP. The format is biochemical.

`CCCC(CCC)C(=O)O` [VPA, Valproic acid]: the Ki (as a rule, a measure of affinity in units of concentration, obtained from inhibition or displacement) is 1000 to 2000 µM.
